This is an account of results in US10052320B2, “Substituted quinoxalines as FGFR kinase inhibitors” (ASTEX THERAPEUTICS LIMITED, priority 2011, dated 2018).

Like-named read-outs stand apart in the source and are kept apart here.

Assay [1] deals with Ba/F3-Flt3-transfected cells in the presence of 10 ng/ml murine IL3. The experiment in a line: Ba/F3-Flt3 (plus IL3) cellular proliferation counterscreen, Alamar Blue. The following applies: for IC50: Mus musculus, read-out: BAF3-FLT3 (PLUS IL3) 384 well pIC50 (converted). In kind it is cell-based.
The next assay addresses FGFR3 (h) (Homo sapiens, UniProt P22607). Briefly: FGFR3 (enzymatic assay), TR-FRET. In kind it is biochemical. The following applies: read-out: FGFR 3 pIC50 (converted). On the procedure: In a final reaction volume of 30 μL, FGFR3 (h) (40 ng/ml) was incubated with 50 mM HEPES pH 7.5, 6 mM MnCl2, 1 mM DTT, 0.1 mM Na3VO4, 0.01% Triton-X-100, 500 nM Btn-Flt3 and 25 μM ATP in the presence of compound (1% DMSO final). […] Time-Resolved Fluorescence Resonance Energy Transfer (TR-FRET) signal (ex340 nm. Em 620 nm, em 655 nm) was measured afterwards and results are expressed in RFU (Relative Fluorescence Units).

A further assay deals with FGFR1 (h) (Homo sapiens, UniProt P11362). The experiment in a line: FGFR1 (enzymatic assay), TR-FRET. The following applies: read-out: FGFR 1 pIC50 (converted). In kind it is biochemical. On the procedure: In a final reaction volume of 30 μL, FGFR1 (h) (25 ng/ml) was incubated with 50 mM HEPES pH 7.5, 6 mM MnCl2, 1 mM DTT, 0.1 mM Na3VO4, 0.01% Triton-X-100, 500 nM Btn-Flt3 and 5 μM ATP in the presence of compound (1% DMSO final). […] Time-Resolved Fluorescence Resonance Energy Transfer (TR-FRET) signal (ex340 nm. Em 620 nm, em 655 nm) was measured afterwards and results are expressed in RFU (Relative Fluorescence Units).

The target in assay [2] is Ba/F3-FGFR3-transfected cells (Homo sapiens, UniProt P22607). The experiment in a line: Ba/F3-FGFR3 (minus IL3) cellular proliferation assay, Alamar Blue. The following applies: for BAF3-FGFR 3 (MIN IL3) 384 well pIC50: minus IL3, 384 well; for BAF3-FGFR 3 (MIN IL3) 96 well pIC50: minus IL3, 96 well. It counts as cell-based. The procedure, abridged:
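Counterscreen adds 10 ng/ml murine IL3, otherwise matching the IL3-free run. In both, FGFR3-transfected Ba/F3 cells (20000 or 10000 per well) incubate with compound for 24 h at 37° C. and 5% CO2; viability is read as resazurin fluorescence (540/590 nm) after 4 h with Alamar Blue.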

The target of a further assay is FGFR4 (h) (Homo sapiens, UniProt P22455). Briefly: FGFR4 (enzymatic assay), TR-FRET. It counts as biochemical. The following applies: read-out: FGFR 4 pIC50 (converted). On the procedure:
In a final reaction volume of 30 μL, FGFR4 (h) (60 ng/ml) was incubated with 50 mM HEPES pH 7.5, 6 mM MnCl2, 1 mM DTT, 0.1 mM Na3VO4, 0.01% Triton-X-100, 500 nM Btn-Flt3 and 5 μM ATP in the presence of compound (1% DMSO final). […] Time-Resolved Fluorescence Resonance Energy Transfer (TR-FRET) signal (ex340 nm. Em 620 nm, em 655 nm) was measured afterwards and results are expressed in RFU (Relative Fluorescence Units).

Chain of FGFR4 (h) (P22455 22-802): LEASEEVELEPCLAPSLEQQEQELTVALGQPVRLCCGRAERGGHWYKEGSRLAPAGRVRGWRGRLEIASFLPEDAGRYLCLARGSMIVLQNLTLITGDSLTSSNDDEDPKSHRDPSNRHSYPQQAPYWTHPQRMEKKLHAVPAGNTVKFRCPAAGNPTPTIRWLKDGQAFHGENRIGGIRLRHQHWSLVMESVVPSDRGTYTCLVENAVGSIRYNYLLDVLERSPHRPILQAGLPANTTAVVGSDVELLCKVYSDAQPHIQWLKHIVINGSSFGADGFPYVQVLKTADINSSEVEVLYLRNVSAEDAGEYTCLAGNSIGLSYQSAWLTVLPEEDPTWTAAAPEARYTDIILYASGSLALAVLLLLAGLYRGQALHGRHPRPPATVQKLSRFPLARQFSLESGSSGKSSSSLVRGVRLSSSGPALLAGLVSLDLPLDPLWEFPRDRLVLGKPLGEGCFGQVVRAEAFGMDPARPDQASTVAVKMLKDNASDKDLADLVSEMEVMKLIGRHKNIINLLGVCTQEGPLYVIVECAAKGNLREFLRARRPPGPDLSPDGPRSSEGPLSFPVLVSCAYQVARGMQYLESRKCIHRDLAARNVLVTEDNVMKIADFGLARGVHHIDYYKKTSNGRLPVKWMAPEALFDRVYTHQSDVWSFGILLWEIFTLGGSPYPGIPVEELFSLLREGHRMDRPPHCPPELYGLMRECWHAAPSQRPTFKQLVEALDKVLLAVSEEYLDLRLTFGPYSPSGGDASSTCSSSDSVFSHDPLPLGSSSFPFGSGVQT
Chain of FGFR3 (h) (P22607 23-806): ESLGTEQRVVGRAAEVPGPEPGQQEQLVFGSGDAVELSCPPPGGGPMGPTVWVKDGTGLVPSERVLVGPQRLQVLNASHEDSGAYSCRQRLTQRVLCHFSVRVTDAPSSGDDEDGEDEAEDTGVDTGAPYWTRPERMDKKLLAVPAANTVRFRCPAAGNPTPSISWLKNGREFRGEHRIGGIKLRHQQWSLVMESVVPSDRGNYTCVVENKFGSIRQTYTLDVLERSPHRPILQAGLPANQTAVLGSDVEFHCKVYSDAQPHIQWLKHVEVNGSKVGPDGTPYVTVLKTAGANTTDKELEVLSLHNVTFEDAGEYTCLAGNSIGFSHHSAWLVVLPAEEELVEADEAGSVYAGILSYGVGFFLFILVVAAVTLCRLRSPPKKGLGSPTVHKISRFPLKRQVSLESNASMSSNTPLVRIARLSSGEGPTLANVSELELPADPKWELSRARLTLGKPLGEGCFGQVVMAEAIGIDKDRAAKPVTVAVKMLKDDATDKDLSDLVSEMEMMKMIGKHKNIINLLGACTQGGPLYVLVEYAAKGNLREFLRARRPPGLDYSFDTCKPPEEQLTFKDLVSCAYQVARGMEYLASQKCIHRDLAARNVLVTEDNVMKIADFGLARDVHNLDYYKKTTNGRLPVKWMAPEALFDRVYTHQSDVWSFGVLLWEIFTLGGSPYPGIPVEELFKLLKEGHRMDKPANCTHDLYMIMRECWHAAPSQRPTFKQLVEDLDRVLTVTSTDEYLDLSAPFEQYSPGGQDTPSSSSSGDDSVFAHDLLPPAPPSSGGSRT
Chain of FGFR1 (h) (P11362 22-822): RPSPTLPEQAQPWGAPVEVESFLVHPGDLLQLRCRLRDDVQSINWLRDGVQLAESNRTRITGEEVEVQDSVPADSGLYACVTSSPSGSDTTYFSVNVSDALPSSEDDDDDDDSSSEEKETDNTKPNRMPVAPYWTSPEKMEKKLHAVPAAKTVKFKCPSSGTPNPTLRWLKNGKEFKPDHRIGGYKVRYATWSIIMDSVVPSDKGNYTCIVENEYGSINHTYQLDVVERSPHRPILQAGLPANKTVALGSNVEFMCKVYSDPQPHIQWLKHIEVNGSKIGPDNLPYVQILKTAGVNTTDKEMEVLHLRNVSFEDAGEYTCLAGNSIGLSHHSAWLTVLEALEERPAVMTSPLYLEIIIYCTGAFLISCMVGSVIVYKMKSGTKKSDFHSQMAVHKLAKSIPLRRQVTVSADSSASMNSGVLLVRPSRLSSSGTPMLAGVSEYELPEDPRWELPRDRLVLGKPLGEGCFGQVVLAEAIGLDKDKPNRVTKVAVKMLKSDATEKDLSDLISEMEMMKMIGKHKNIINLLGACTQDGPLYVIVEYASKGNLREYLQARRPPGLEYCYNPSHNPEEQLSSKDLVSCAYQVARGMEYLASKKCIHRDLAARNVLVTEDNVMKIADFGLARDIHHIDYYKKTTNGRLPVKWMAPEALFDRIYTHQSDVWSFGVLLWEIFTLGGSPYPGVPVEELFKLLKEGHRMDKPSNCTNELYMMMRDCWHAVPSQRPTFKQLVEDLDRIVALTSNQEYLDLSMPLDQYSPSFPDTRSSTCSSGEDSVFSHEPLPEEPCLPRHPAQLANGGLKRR
Chain of Ba/F3-FGFR3-transfected cells (P22607 whole entry, change not shown): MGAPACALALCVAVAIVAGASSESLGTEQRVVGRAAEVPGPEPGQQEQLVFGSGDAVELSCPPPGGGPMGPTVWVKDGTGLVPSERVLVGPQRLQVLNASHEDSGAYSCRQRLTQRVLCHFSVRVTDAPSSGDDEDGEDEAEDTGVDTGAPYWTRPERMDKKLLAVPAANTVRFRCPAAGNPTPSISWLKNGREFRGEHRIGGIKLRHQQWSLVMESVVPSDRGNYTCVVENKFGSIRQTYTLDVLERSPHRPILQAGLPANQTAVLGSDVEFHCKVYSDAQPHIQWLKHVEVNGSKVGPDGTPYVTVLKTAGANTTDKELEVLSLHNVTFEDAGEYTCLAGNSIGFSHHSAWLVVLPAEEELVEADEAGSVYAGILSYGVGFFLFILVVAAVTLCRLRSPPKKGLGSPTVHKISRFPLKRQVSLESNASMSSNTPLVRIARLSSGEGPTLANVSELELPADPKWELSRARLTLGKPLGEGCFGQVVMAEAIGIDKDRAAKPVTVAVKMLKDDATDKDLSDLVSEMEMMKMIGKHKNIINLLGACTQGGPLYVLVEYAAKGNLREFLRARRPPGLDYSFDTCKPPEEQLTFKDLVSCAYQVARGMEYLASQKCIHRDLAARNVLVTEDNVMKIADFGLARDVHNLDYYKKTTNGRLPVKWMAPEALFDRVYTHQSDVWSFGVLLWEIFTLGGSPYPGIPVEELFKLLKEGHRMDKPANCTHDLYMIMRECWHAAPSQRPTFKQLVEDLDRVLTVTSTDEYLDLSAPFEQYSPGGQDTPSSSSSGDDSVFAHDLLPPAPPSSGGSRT

`COc1cc(OC)cc(N(CC(OC(C)=O)C(F)(F)F)c2ccc3ncc(-c4cccnc4)nc3c2)c1` (single isomer, unassigned) [Compound 45]: in assay [1] (plus 10 ng/ml murine IL3), the IC50 is over 10000 nM.
For `COc1cc(OC)cc(N(CC(O)C(F)(F)F)c2ccc3ncc(-c4cccnc4)nc3c2)c1` (single isomer, unassigned) [Compound 53], the IC50 in assay [1] (plus 10 ng/ml murine IL3) is over 10000 nM.
As for `COc1cc(OC)cc(N(CC(O)C(F)(F)F)c2ccc3ncc(-c4cccnc4)nc3c2)c1` (single isomer, unassigned) [Compound 54], in assay [1] (plus 10 ng/ml murine IL3), the “BAF3-FLT3 (PLUS IL3) 384 well pIC50” value is under 5.
The same measure, in the same setting: the same measure for `COc1cc(OC)cc(N(CC(OC(C)=O)C(F)(F)F)c2ccc3ncc(-c4cccnc4)nc3c2)c1` (single isomer, unassigned) [Compound 75]: under 5.
Turning to `COCCCN(c1cc(OC)cc(OC)c1)c1ccc2ncc(-c3ccn(C)c3)nc2c1` [Compound 3], the IC50 on FGFR3 (h) was 10 nM; on FGFR1 (h), 7.76 nM; on FGFR4 (h) it was 38.9 nM; in assay [1] (plus 10 ng/ml murine IL3), over 10000 nM. Besides, the “BAF3-FGFR 3 (MIN IL3) 384 well pIC50” value in assay [2] is reported as 6.62.
For `COCCN(c1cc(OC)cc(OC)c1)c1ccc2ncc(-c3ccn(C)c3)nc2c1` [Compound 6], the IC50 at FGFR3 (h) was 6.92 nM; on FGFR1 (h), 4.37 nM; at FGFR4 (h), 24.5 nM; in assay [1] (plus 10 ng/ml murine IL3), over 10000 nM. Further, in assay [2], the “BAF3-FGFR 3 (MIN IL3) 384 well pIC50” value is listed as about 6.27.
For `COc1cc(OC)cc(N(CCNC(C)C)c2ccc3ncc(-c4ccn(C)c4)nc3c2)c1` [Compound 8], the IC50 on FGFR3 (h) is 2.34 nM; on FGFR1 (h) it was 0.457 nM; on FGFR4 (h), 3.47 nM; in assay [1] (plus 10 ng/ml murine IL3), over 10000 nM. For the same compound, the “BAF3-FGFR 3 (MIN IL3) 384 well pIC50” value in assay [2] is listed as about 7.69.
On the same counts, the results for `COc1cc(OC)cc(N(CCO)c2ccc3ncc(-c4cccnc4)nc3c2)c1` [Compound 9] are 4.68 nM, 10 nM, 52.5 nM, over 10000 nM and 6.59.
With `COc1cc(OC)cc(N(CC2CC2)c2ccc3ncc(-c4ccnn4C)nc3c2)c1` [Compound 18], the IC50 in assay [1] (plus 10 ng/ml murine IL3) is over 10000 nM.
Turning to `COc1cc(OC)cc(N(CC2CC2)c2ccc3ncc(-c4ccc5c(ccn5C)c4)nc3c2)c1` [Compound 20], the IC50 in assay [1] (plus IL3, 384 well) was over 10000 nM.
As for `COc1cc(OC)cc(N(CC2CC2)c2ccc3ncc(-c4cn(C)cn4)nc3c2)c1` [Compound 21], the IC50 in assay [1] (plus 10 ng/ml murine IL3) was over 10000 nM.
Turning to `COc1cc(OC)cc(N(CC2CC2)c2ccc3ncc(-c4cc[nH]c4)nc3c2)c1` [Compound 36], the IC50 in assay [1] (plus 10 ng/ml murine IL3) is over 10000 nM.
The same measure, in the same setting: the same measure for `COc1cc(OC)cc(N(CC2CC2)c2ccc3ncc(-c4ccn(CCO)c4)nc3c2)c1` [Compound 56]: over 10000 nM; for `COc1cc(OC)cc(N(CC2CC2)c2ccc3ncc(Nc4cnn(C)c4)nc3c2)c1` [Compound 61]: over 10000 nM; for `COc1cc(OC)cc(N(CC2CC2)c2ccc3ncc(-c4cnn(C)n4)nc3c2)c1` [Compound 70]: over 10000 nM.
On the same count and under the same terms, next, `COc1cc(OC)cc(N(CC2CC2)c2ccc3ncc(-c4cn(C)nn4)nc3c2)c1` [Compound 71]: over 10000 nM; `COc1cc(OC)cc(N(CC2CC2)c2ccc3ncc(-c4ccn(C)c4)nc3c2)c1` [Compound 73]: over 10000 nM.
Take `CNCCN(c1cc(OC)cc(OC)c1)c1ccc2ncc(-c3ccc(NC(=O)OC(C)(C)C)nc3)nc2c1` [Compound 81]: the IC50 on FGFR3 (h) is 10 nM; at FGFR1 (h), 10.2 nM; at FGFR4 (h), 63.1 nM. In addition, the “BAF3-FGFR 3 (MIN IL3) 384 well pIC50” value in assay [2] is on record as 5.91.
On to `COc1cc(OC)cc(N(CC2CC2)c2ccc3ncc(-c4nnn(C)n4)nc3c2)c1` [Compound 82], for which the IC50 is 148 nM on FGFR3 (h), 309 nM on FGFR1 (h) and over 1000 nM on FGFR4 (h). The “BAF3-FGFR 3 (MIN IL3) 96 well pIC50” value in assay [2] was 5.18. Also, the “BAF3-FGFR 3 (MIN IL3) 384 well pIC50” value in assay [2] is under 5.
In the case of `COc1cc(OC)cc(N(CC2CC2)c2ccc3ncc(C(=O)NCCN4CCOCC4)nc3c2)c1` [Compound 96], the IC50 at FGFR3 (h) is 550 nM; on FGFR1 (h), about 363 nM; on FGFR4 (h), over 1000 nM. In addition, the “BAF3-FGFR 3 (MIN IL3) 96 well pIC50” value in assay [2] came to 5.18. In assay [2], the “BAF3-FGFR 3 (MIN IL3) 384 well pIC50” value is listed as under 5.
As to `COc1cc(OC)cc(N(CC2CC2)c2ccc3ncc(-c4nccs4)nc3c2)c1` [Compound 97], the IC50 was 676 nM at FGFR3 (h), 575 nM at FGFR1 (h) and 1050 nM at FGFR4 (h). Further, the “BAF3-FGFR 3 (MIN IL3) 96 well pIC50” value in assay [2] is listed as under 5. Besides, the “BAF3-FGFR 3 (MIN IL3) 384 well pIC50” value in assay [2] is given as under 5.
For `COc1cc(OC)cc(N(CC2CC2)c2ccc3ncc(Nc4nccs4)nc3c2)c1` [Compound 98], the IC50 at FGFR3 (h) is 191 nM; at FGFR1 (h), 437 nM; at FGFR4 (h), over 1000 nM. In addition, the “BAF3-FGFR 3 (MIN IL3) 96 well pIC50” value in assay [2] is given as under 5. Besides, the “BAF3-FGFR 3 (MIN IL3) 384 well pIC50” value in assay [2] is on record as under 5.
Consider `COc1cc(OC)cc(N(CC2CC2)c2ccc3ncc(C(=O)NCc4ccc(F)cc4)nc3c2)c1` [Compound 101], for which the IC50 at FGFR3 (h), on FGFR1 (h) and at FGFR4 (h) was over 1000 nM each time. Also, the “BAF3-FGFR 3 (MIN IL3) 96 well pIC50” value in assay [2] is reported as under 5. The “BAF3-FGFR 3 (MIN IL3) 384 well pIC50” value in assay [2] is reported as under 5.
With `COc1cc(OC)cc(N(CC2CC2)c2ccc3ncc(Nc4nncs4)nc3c2)c1` [Compound 102], the IC50 on FGFR3 (h), at FGFR1 (h) and at FGFR4 (h) was over 1000 nM each time. Also, the “BAF3-FGFR 3 (MIN IL3) 96 well pIC50” value in assay [2] is reported as under 5. In addition, the “BAF3-FGFR 3 (MIN IL3) 384 well pIC50” value in assay [2] is under 5.
As to `COc1cc(OC)cc(N(CC2CC2)c2ccc3ncc(-c4cccn4C)nc3c2)c1` [Compound 103], the IC50 is about 1000 nM at FGFR3 (h), over 1000 nM at FGFR1 (h) and over 1000 nM at FGFR4 (h). Moreover, the “BAF3-FGFR 3 (MIN IL3) 96 well pIC50” value in assay [2] is listed as under 5. In addition, the “BAF3-FGFR 3 (MIN IL3) 384 well pIC50” value in assay [2] is listed as under 5.
In the case of `COc1cc(OC)cc(N(CC2CC2)c2ccc3ncc(-n4cnc(CO)c4)nc3c2)c1` [Compound 105], the IC50 on FGFR3 (h) is 13.8 nM; at FGFR1 (h), 28.2 nM; at FGFR4 (h) it was 132 nM. Besides, in assay [2], the “BAF3-FGFR 3 (MIN IL3) 384 well pIC50” value was determined as 5.53.
Take `COc1cc(OC)cc(N(CCO)c2ccc3ncc(-c4ccc(N)nc4)nc3c2)c1` [Compound 106]: the IC50 at FGFR3 (h) is 3.02 nM; at FGFR1 (h) it was 5.43 nM; on FGFR4 (h) it was 19.5 nM. In addition, the “BAF3-FGFR 3 (MIN IL3) 384 well pIC50” value in assay [2] was about 6.54.
`CNC(=O)c1cc(-c2cnc3ccc(N(CCN4CCCC4CO)c4cc(OC)cc(OC)c4)cc3n2)ccn1` (centres unmarked) [Compound 109]: the IC50 at FGFR3 (h) was 11.7 nM; at FGFR1 (h) it was 16.2 nM; on FGFR4 (h) it was 251 nM. The “BAF3-FGFR 3 (MIN IL3) 384 well pIC50” value in assay [2] is reported as about 6.77.
For `CNC(=O)c1cc(-c2cnc3ccc(N(CCNCC(F)(F)F)c4cc(OC)cc(OC)c4)cc3n2)ccn1` [Compound 113], in that order: 33.9 nM, 85.1 nM, 170 nM and about 5.63.
As for `COc1cc(OC)cc(N(CCCO)c2ccc3ncc(-c4ccc(C)nc4)nc3c2)c1` [Compound 115], the IC50 on FGFR3 (h) is 4.79 nM; at FGFR1 (h) it was 15.8 nM; on FGFR4 (h) it was 38 nM. For the same compound, the “BAF3-FGFR 3 (MIN IL3) 384 well pIC50” value in assay [2] was 6.29.
In the case of `COc1cc(OC)cc(N(CCNC(C)C)c2ccc3ncc(-c4ccccc4)nc3c2)c1` [Compound 121], the IC50 is 5.89 nM on FGFR3 (h), 1.17 nM at FGFR1 (h) and 7.94 nM on FGFR4 (h). In addition, the “BAF3-FGFR 3 (MIN IL3) 384 well pIC50” value in assay [2] is reported as 6.42.
On the same counts, the results for `COc1cc(OC)cc(N(CCCO)c2ccc3ncc(-c4ccc(N(C)C(=O)OC(C)(C)C)nc4)nc3c2)c1` [Compound 125] are 81.3 nM, 34.7 nM, 174 nM and about 6.04.
On the same counts, the results for `COc1cc(OC)cc(N(CCCO)c2ccc3ncc(-c4ccnc(C(=O)NCCCCN)c4)nc3c2)c1` [Compound 126] are 17.8 nM, 19.5 nM, 117 nM and 5.51.
